According to patent US9029325B2, “Amylin analogues and pharmaceutical compositions thereof” (Novo Nordisk A/S, priority 2011, dated 2015):
Where two headings read alike, the source gives them in different places. Starred links: 1 amine or outer side, 2 acyl side, 3 side chain; linkers in the order of their positions; H or OH if unused. Positions of bridges follow the written chain, without caps; N, C: chain ends. Residues, ends and D or L forms follow the SMILES beside them. Groups on a side chain read outwards from the residue. *: point of attachment. C20 diacid = O=C(O)CCCCCCCCCCCCCCCCCCC(=O)*; γGlu = O=C(O)[C@H](CCC(=O)[*:2])N[*:1]

Experiments:
[1] = system: amylin receptor versus calcitonin receptor; settings: cited from earlier work
[2] = Assay (III) ThT fibrillation assay for physical stability; type: physicochemical
Procedure, shortened: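 Freshly prepared samples, pH adjusted with NaOH and HClO4 or HCl, received ThT at 1 μM final and were incubated at 37° C with orbital shaking at 960 rpm. Fluorescence (ex 444 nm, em 485 nm) was read every 20 minutes; […], with polypeptide concentration by reverse HPLC before and after.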

[3] = Assay (I) efficacy testing on appetite (food intake), ad libitum fed rat model; type: in vivo, Sprague Dawley (SD) rats; settings: 3 nmol/kg
Procedure, shortened: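 Ad libitum fed SD rats (200-250 g) on a reversed light cycle, housed individually, received a single 0.01-3 mg/kg dose ip, po or sc just before lights-off. Individual food intake recorded hourly for 7 h, then at 24 h and sometimes 48 h, versus vehicle; Grubbs outliers excluded.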

[4] = target: T1, rat amylin 3(a) receptor (rat calcitonin(a) receptor + rat RAMP3) (Rattus norvegicus, UniProt P32214+Q9JJ73); test: Assay (II)b functional rat amylin receptor cAMP FlashPlate assay; type: cell-based; settings: Table 11
T1 construct: expressed in transfected cells; host or cells: BHK tk'ts 13 (transient, FuGENE 6)
T1 sequence (P32214 25-479 isoform P32214-2 limits assumed): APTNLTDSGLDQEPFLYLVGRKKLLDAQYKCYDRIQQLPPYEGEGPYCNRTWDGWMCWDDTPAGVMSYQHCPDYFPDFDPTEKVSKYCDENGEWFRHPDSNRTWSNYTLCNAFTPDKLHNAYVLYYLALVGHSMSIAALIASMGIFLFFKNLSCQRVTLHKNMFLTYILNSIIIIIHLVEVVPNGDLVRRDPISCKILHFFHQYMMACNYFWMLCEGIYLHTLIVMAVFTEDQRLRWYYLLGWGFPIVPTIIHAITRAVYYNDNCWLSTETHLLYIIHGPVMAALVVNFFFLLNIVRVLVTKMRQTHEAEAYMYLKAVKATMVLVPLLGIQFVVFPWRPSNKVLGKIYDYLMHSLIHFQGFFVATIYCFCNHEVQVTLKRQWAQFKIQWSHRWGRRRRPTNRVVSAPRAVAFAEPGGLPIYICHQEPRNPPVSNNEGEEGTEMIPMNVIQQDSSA
T1 sequence (Q9JJ73 23-147 partner): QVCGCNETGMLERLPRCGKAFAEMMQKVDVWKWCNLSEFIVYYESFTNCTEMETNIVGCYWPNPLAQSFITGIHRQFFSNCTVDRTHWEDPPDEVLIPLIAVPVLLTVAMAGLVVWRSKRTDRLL
Source text: (§1) Activation of calcitonin and amylin (coexpression of calcitonin receptor and receptor activity modifying proteins (RAMP)) receptors lead to increased intracellular concentrations of cAMP. In order to quantify the cAMP levels in transiently transfected cells the Adenylyl Cyclase Activation FlashPlate® Assay from Perkin Elmer was used. The basic principle of the FlashPlate® Assay is a competition between radioactive and non-radioactive cAMP generated by the cells for a fixed number of binding sites.
(§2) BHK tk′ts 13 cells were transiently transfected with either rat calcitonin (a) receptor or amylin 3 (a) receptor (rat calcitonin(a) receptor+ rat RAMP3) using FuGENE® 6 (Roche), according to the manufacturers recommendations.
(§3) 24 hours after transient transfection the cells (rat calcitonin(a)—or rat amylin 3(a)—receptor cells) were added (100.000 cells/well) to the 96 well FlashPlates® with samples or standard in FlashPlate stimulation buffer with IBMX and incubated for 30 min. Detection mix was created according to manufacturers protocol and scintillation measured after 3 h of incubation on TopCounter™ (Packard).

[5] = target: T2, human amylin receptor (amylin 3(a) receptor: human calcitonin receptor + RAMP-3) (Homo sapiens, UniProt O60896+P30988); test: Assay (II)a functional human amylin receptor CRE-luciferase assay; type: cell-based; settings: Table 11
T2 construct: expressed in transfected cells
T2 sequence (P30988 25-474): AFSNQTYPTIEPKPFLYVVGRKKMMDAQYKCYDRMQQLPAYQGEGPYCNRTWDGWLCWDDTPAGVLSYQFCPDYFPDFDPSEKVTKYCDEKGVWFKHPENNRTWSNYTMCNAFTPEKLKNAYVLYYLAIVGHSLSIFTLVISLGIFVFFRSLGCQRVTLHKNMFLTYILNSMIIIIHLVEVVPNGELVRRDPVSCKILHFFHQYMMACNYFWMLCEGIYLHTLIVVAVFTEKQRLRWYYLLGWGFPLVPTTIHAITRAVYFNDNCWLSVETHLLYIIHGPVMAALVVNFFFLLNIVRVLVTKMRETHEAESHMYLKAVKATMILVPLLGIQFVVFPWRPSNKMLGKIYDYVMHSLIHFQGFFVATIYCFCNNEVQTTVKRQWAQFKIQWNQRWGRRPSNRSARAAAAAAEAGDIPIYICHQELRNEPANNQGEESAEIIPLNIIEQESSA
T2 sequence (O60896 24-148 partner): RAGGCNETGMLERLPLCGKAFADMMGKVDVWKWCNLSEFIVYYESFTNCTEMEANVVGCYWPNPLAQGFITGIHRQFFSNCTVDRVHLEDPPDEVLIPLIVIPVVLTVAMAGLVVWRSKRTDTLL
Source text: (§4) Activation of calcitonin and amylin (coexpression of calcitonin receptor and receptor activity modifying proteins (RAMP)) receptors lead to increased intracellular concentrations of cAMP. Consequently, transcription is activated by promoters containing multiple copies of the cAMP response element (CRE). It is thus possible to measure amylin activity by the use of a CRE luciferase reporter gene introduced into BHK cells also expressing calcitonin or amylin receptors.
(§5) A BHK570 cell line was stably transfected with the human calcitonin receptor and a CRE-responsive luciferase reporter gene. The cell line was further transfected with RAMP-3, using standard methods. This turns the calcitonin receptor into an amylin 3(a) receptor. Methotrexate, Neomycin, and Hygromycin are selection markers for luciferase, the calcitonin receptor, and RAMP-3, respectively.
(§6) To perform activity assays, BHK calcitonin (a) receptor- or amylin 3(a)-receptor/CRE-luc cells were seeded in white 96 well culture plates at a density of about 20.000 cells/well. […] After incubation overnight at 37° C. and 5% CO2, the growth medium was replaced by 50 μl/well assay medium (DMEM (without phenol red), Glutamax™, 10% FBS, and 10 mM Hepes, pH 7.4). Further, 50 μl/well of standard or sample in assay buffer were added. […] Finally, luminescence was measured on a TopCounter (Packard) in SPC (single photon counting) mode.

[6] = target: T3, human calcitonin receptor (CTa receptor) (Homo sapiens, UniProt P30988); test: Assay (II)a functional human calcitonin receptor CRE-luciferase assay; type: cell-based; settings: Table 11
T3 construct: expressed in transfected cells
T3 sequence (P30988 25-474): T2 sequence (P30988 25-474)
Source text: as §4, §5, §6

[7] = Assay (IV) determination of solubility; type: physicochemical
Method: The polypeptide was dissolved in water at −500 nmol/ml and mixed 1:1 with a series of buffers (100 mM glycylglycine pH 3.0, 100 mM glycylglycine pH 4.0, 100 mM glycylglycine pH 5.0, 100 mM bistrispropane pH 6.0, 100 mM bistrispropane pH 6.5, 100 mM bistrispropane pH 7.0, 100 mM bistrispropane pH 7.5, 100 mM bistrispropane pH 8.0). After 18 hours at room temperature the samples were centrifuged and the polypeptide concentration determined by UPLC.

[8] = target: T4, rat calcitonin (a) receptor (Rattus norvegicus, UniProt P32214); test: Assay (II)b functional rat calcitonin receptor cAMP FlashPlate assay; type: cell-based; settings: Table 11; read-out: CTa receptor rat EC50
T4 construct: expressed in transfected cells; host or cells: BHK tk'ts 13 (transient, FuGENE 6)
T4 sequence (P32214 25-479 isoform P32214-2 limits assumed): T1 sequence (P32214 25-479 isoform P32214-2 limits assumed)
Source text: as §1, §2, §3

Th T pH 4.0 lag time (h) ([2]; 37° C., orbital shaking 960 rpm) | ThT pH 4.0 lag time ([2]; Table 9) | EC50 [4] | EC50 [5] | EC50 [6] | solubility at 18 h ([7]; pH 3.0, read-out: Solubility (μM) pH 3.0) | solubility at 18 h ([7]; pH 4.0, read-out: Solubility (μM) pH 4.0) | solubility at 18 h ([7]; pH 5.0, read-out: Solubility (μM) pH 5.0) | solubility at 18 h ([7]; pH 6.0, read-out: Solubility (μM) pH 6.0) | solubility at 18 h ([7]; pH 6.5, read-out: Solubility (μM) pH 6.5) | solubility at 18 h ([7]; pH 7.0, read-out: Solubility (μM) pH 7.0) | solubility at 18 h ([7]; pH 7.5, read-out: Solubility (μM) pH 7.5) | solubility at 18 h ([7]; pH 8.0, read-out: Solubility (μM) pH 8.0) | EC50 [8] | Molecule | times more potent on the amylin receptor than on the calcitonin receptor [1] | times more potent on the amylin receptor than on the calcitonin receptor ([1]; listed as Pramlintide) | Food intake reduction 0-24 h 3 nmol/kg (%) [3] | Food intake reduction 24-48 h 3 nmol/kg (%) [3]
 |  |  |  |  |  |  |  |  |  |  |  |  |  | pramlintide | 14 times | approximately 14 times |  | 
>45 h | >45 hr |  |  |  |  |  |  |  |  |  |  |  |  | CC[C@H](C)[C@H](NC(=O)[C@@H]1CCCN1C(=O)CNC(=O)[C@H](Cc1ccccc1)NC(=O)[C@H](CC(N)=O)NC(=O)[C@H](CC(N)=O)NC(=O)[C@H](CO)NC(=O)[C@H](CO)NC(=O)[C@H](Cc1c[nH]cn1)NC(=O)[C@H](Cc1c[nH]cn1)NC(=O)[C@H](CC(C)C)NC(=O)[C@H](Cc1ccccc1)NC(=O)[C@H](CCC(=O)O)NC(=O)[C@H](C)NC(=O)[C@H](CC(C)C)NC(=O)[C@H](CCCNC(=N)N)NC(=O)[C@H](CCC(N)=O)NC(=O)[C@@H](NC(=O)[C@H](C)NC(=O)[C@@H]1CSSC[C@H](NC(=O)[C@H](CCCNC(=N)N)NC(=O)CC[C@H](NC(=O)CCCCCCCCCCCCCCCCCCC(=O)O)C(=O)O)C(=O)N[C@@H](CC(N)=O)C(=O)N[C@@H]([C@@H](C)O)C(=O)N[C@@H](C)C(=O)N[C@@H]([C@@H](C)O)C(=O)N1)[C@@H](C)O)C(=O)N[C@@H](CC(C)C)C(=O)N1CCC[C@H]1C(=O)N1CCC[C@H]1C(=O)N[C@H](C(=O)N[C@@H](CC(N)=O)C(=O)N[C@H](C(=O)NCC(=O)N[C@@H](CO)C(=O)N[C@@H](CC(N)=O)C(=O)N[C@H](C(=O)N1CCC[C@H]1C(N)=O)[C@@H](C)O)C(C)C)[C@@H](C)O [Example 96, N-alpha-[(S)-4-Carboxy-4-(19-carboxynonadecanoylamino)butyryl]-[Arg1, Glu14, His17, Pro37]-pramlintide] ({C20 diacid-γGlu}-RCNTATCATQRLAEFLHHSSNNFGPILPPTNVGSNTP-NH2; disulfide 2-7) |  |  | 69% | 89%
 |  | 0.106 nM | 0.142 nM | 0.228 nM | > 200 µM | > 200 µM | > 200 µM | > 200 µM | > 200 µM | > 200 µM | > 200 µM | > 200 µM | 0.437 nM | CC[C@H](C)[C@H](NC(=O)[C@@H]1CCCN1C(=O)CNC(=O)[C@H](Cc1ccccc1)NC(=O)[C@H](CC(N)=O)NC(=O)[C@H](CC(N)=O)NC(=O)[C@H](CO)NC(=O)[C@H](CO)NC(=O)[C@H](Cc1c[nH]cn1)NC(=O)[C@H](Cc1c[nH]cn1)NC(=O)[C@H](CC(C)C)NC(=O)[C@H](Cc1ccccc1)NC(=O)[C@H](CCC(=O)O)NC(=O)[C@H](C)NC(=O)[C@H](CC(C)C)NC(=O)[C@H](CCCNC(=N)N)NC(=O)[C@H](CCC(N)=O)NC(=O)[C@@H](NC(=O)[C@H](C)NC(=O)[C@@H]1CSSC[C@H](NC(=O)[C@@H](N)CCCCNC(=O)CC[C@H](NC(=O)CCCCCCCCCCCCCCCCCCC(=O)O)C(=O)O)C(=O)N[C@@H](CC(N)=O)C(=O)N[C@@H]([C@@H](C)O)C(=O)N[C@@H](C)C(=O)N[C@@H]([C@@H](C)O)C(=O)N1)[C@@H](C)O)C(=O)N[C@@H](CC(C)C)C(=O)N1CCC[C@H]1C(=O)N1CCC[C@H]1C(=O)N[C@H](C(=O)N[C@@H](CC(N)=O)C(=O)N[C@H](C(=O)NCC(=O)N[C@@H](CO)C(=O)N[C@@H](Cc1c[nH]cn1)C(=O)N[C@H](C(=O)N[C@@H](Cc1ccc(O)cc1)C(N)=O)[C@@H](C)O)C(C)C)[C@@H](C)O [compound 87] (H-K([γGlu-C20 diacid])CNTATCATQRLAEFLHHSSNNFGPILPPTNVGSHTY-NH2; disulfide 2-7 (inferred); C-terminus assumed) |  |  | 66% | 47%
